In patent US6479530B2, “Imidazole derivatives having affinity for α2 receptors” (Orion Corporation, priority 1995, dated 2002):

Key:
[1] = biological target: α1-adrenoceptors; test: Binding assay, displacement of 0.1 nM 3H-prazosin in rat neocortical membranes; conditions: 30 min at 25° C., at least three independent experiments
Protocol: (§1) Affinities for α2-adrenoceptors and α1-adrenoceptors were estimated by determining the displacement of 1 nM ^3H-RX821002 (α2) or 0.1 nM ^3H-prazosin (α1) from α-adrenoceptors in rat neocortical membranes. For this purpose membranes were incubated with different concentrations of test compounds spanning a concentration range of five orders of magnitude. Nonspecific binding was defined with 10 μM phentolamine. Membranes were used at a protein concentration of 2 mg/ml in a total volume of 250 μl. The incubation buffer consisted of 50 mM TRIS-HCl, pH 7.7. After a 30 min incubation at 25° C. samples were filtered through glass fibre filter and filters were washed three times with 4 ml icecold wash buffer consisting of 10 mM TRIS-HCl, pH 7.7. Filters were then dried, impregnated with a scintillation cocktail and counted in a scintillation counter. Experimental data was analyzed using the commercial nonlinear least squares computer program LIGAND.
(§2) Each compound was tested in at least three independent experiments for its affinity on rat neocortical α2- or α1-adrenoceptors.

[2] = system: α2-adrenoceptors; test: Binding assay, displacement of 1 nM 3H-RX821002 in rat neocortical membranes; conditions: ratio of affinities on rat neocortical α2- vs α1-adrenoceptors
Protocol: as §1, §2

[3] = biological target: T1, α2-adrenoceptors; test: as above; conditions: rat neocortical membranes, 1 nM 3H-RX821002, 30 min at 25° C., at least three independent experiments
T1 construct: pKi α2; other: rat neocortical membranes, 1 nM 3H-RX821002, 30 min at 25° C., at least three independent experiments
Protocol: as §1, §2

| SMILES | pKi α1 [1] | alpha2 vs alpha1 selectivity [2] | pKi α2 [3] |
| --- | --- | --- | --- |
| Cl.Oc1ccc2c(c1)C(Cc1c[nH]cn1)CC2 (stereo not drawn) [Compound 2, 3-(1H-Imidazol-4-ylmethyl)-indan-5-ol hydrochloride] | 6.61 | 126 | 8.70 |
| Cc1cccc([C@H](C)c2cnc[nH]2)c1C [Compound 5, dexmedetomidine, reference compound] | 6.48 | 90 | 8.42 |
| CC(c1c[nH]cn1)C1CCc2ccccc21.Cl (stereo not drawn) [Compound 3, 4-[1-(Indan-1-yl)-ethyl]-1H-imidazole hydrochloride] | 6.21 | 142 | 8.35 |
| Cc1cccc2c1CCC2c1c[nH]cn1.Cl (stereo not drawn) [Compound 1, 4-(4-Methylindan-1-yl)-1H-imidazole hydrochloride] | 7.31 | 14 | 8.44 |
| Cl.Oc1ccc2c(c1)C(Cc1c[nH]cn1)CCC2 (stereo not drawn) [Compound 4, 8-(1H-Imidazol-4-ylmethyl)-5,6,7,8-tetrahydronaphthalen-2-ol hydrochloride] | 6.85 | 3 | 7.39 |
